From patent US4088757A, “4'Alpha- and 4'beta-amino-4'-desoxyoleandrins, and pharmaceutical composition containing same” (Beiersdorf Aktiengesellschaft, priority 1976, dated 1978)
≈ marks a conversion by molar mass, not a printed value.

Tests used:
[1] = format: in vivo; settings: cat, intravenous; for preferential route of elimination (in words): tritium-marked drug; for Biliary Elimination: tritium-marked drug in feces; for Biliary Elimination / Renal Elimination: % of activity originally injected; for Renal Elimination: tritium-marked drug in urine
Experimental: 1. The elimination rate of both drugs in the cat was tested by intravenously injecting a fixed amount of the drugs into the cat and recording the amount of tritium-marked drug appearing in the urine and feces. The results are stated as a percentage of the activity of the tritium-marked glycoside originally injected.

[2] = test system: papillary muscle of the guinea pig; test: inotropic effect on the papillary muscle of the guinea pig in vitro; settings: Cavia porcellus, 40% ethanol and 60% water mixture, read-out: ED50 (amount of drug necessary to increase the contractile force of the muscle by 50%)
Experimental: 2. The inotropic effect of both drugs was tested on the papillary muscle of the guinea pig in vitro. The muscle was connected to a recording device and then placed in a bath of 0.1% solution of the drug to be tested in a mixture of 40% ethanol and 60% water. This solution was gradually diluted with water and a dosage versus contraction graph plotted. The amount of drug necessary to increase the contractile force of the muscle by 50% (ED50) was then calculated.

Row | SMILES | preferential route of elimination (in words) [1] | Biliary Elimination [1] [%] | Renal Elimination [1] [%] | EC50 [2] [µg/mL]
1 | COC1CC(OC2CCC3(C)C(CCC4C3CCC3(C)C(C5=CC(=O)OC5)C(OC(C)=O)CC43O)C2)OC(C)C1N (centres unmarked) [4'-amino-4'-desoxy-oleandrin] | preferentially eliminated by the biliary system | 11.1 | 2.5 | 0.13 (≈ 0.226 µM)
2 | C[C@H]1O[C@@H](O[C@H]2[C@@H](O)C[C@H](O[C@H]3[C@@H](O)C[C@H](O[C@H]4CC[C@@]5(C)[C@H](CC[C@@H]6[C@@H]5C[C@@H](O)[C@]5(C)[C@@H](C7=CC(=O)OC7)CC[C@]65O)C4)O[C@@H]3C)O[C@@H]2C)C[C@H](O)[C@@H]1O [digoxin] | preferentially eliminated by the renal system | 4.7 | 6.3 | 1.1 (≈ 1.41 µM)
